Results from patent US5455356A, “Fungicidal 1-aryl-1-[α-(triazolyl)alkyl]-1-silacycloalkanes and their preparation methods” (priority 1993, dated 1995).

Tests used:
Type in all cases: cell-based
Phytophthora capsisi = assay: In vitro mycelial/spore growth on potato-sucrose-agar, percent disease control (PC); conditions: read-out: % controlled, PC
Experimental: (§1) The compounds of this invention were dissolved respectively in acetone in an amount equal to 10% of the final volume and then in purified water at the concentration of 100 ppm and 50 ppm.
(§2) Each of the solution was mixed with potato-sucrose-agar medium in 6" petri dish and one of the fungi was spotted at the center of the dish. The dish was incubated in growth room for several days. The percent disease control was derived from the radii of spore growth. The screening tests in vitro condition are well-known to those skilled in the art.
(§3) The following fungi were used for the screening.
2) Phy. ca.; Phytophthora capsisi

Botryosphaeri = assay: In vitro mycelial/spore growth on potato-sucrose-agar, percent disease control (BD); conditions: read-out: % controlled, BD
Experimental: as §1, §2, §3
4) Bo. do (Ma); Botryosphaeri

GC = assay: In vitro mycelial/spore growth on potato-sucrose-agar, percent disease control (GC); conditions: read-out: % controlled, GC; for inhibition of growth at 50 ppm: GC
Experimental: as §1, §2, §3

Pyricalaria oryzae = assay: In vitro mycelial/spore growth on potato-sucrose-agar, percent disease control (PO); conditions: read-out: % controlled, PO
Experimental: as §1, §2, §3
6) Py. or.; Pyricalaria oryzae

Rhizoctonia solani = assay: In vitro mycelial/spore growth on potato-sucrose-agar, percent disease control (RS, first column); conditions: read-out: % controlled, RS
Experimental: as §1, §2, §3
7) Rhi. so.; Rhizoctonia solani

Fusarium moniliforme = assay: In vitro mycelial/spore growth on potato-sucrose-agar, percent disease control (FM); conditions: Fusarium verticillioides, Fusarium moniliforme, read-out: % controlled, FM
Experimental: as §1, §2, §3
8) Fu. mo.; Fusarium moniliforme

Rhizopus sp. = assay: In vitro mycelial/spore growth on potato-sucrose-agar, percent disease control (RS, second column); conditions: read-out: % controlled, RS; for inhibition of growth at 50 ppm: Rhizopus sp.; for inhibition of growth at 200 ppm: Rhizopus
Experimental: as §1, §2, §3
9) Rhi. sp.; Rhizopus sp.

Botritis cinerea = assay: In vitro mycelial/spore growth on potato-sucrose-agar, percent disease control (BC); conditions: read-out: % controlled, BC
Experimental: as §1, §2, §3
10) Bo. ci.; Botritis cinerea

| Structure (SMILES) | inhibition of growth at 50 ppm (Phytophthora capsisi) [%] | inhibition of growth at 200 ppm (Phytophthora capsisi) [%] | inhibition of growth at 50 ppm (Botryosphaeri) [%] | inhibition of growth at 200 ppm (Botryosphaeri) [%] | inhibition of growth at 50 ppm (GC) [%] | inhibition of growth at 200 ppm (GC) [%] | inhibition of growth at 50 ppm (Pyricalaria oryzae) [%] | inhibition of growth at 200 ppm (Pyricalaria oryzae) [%] | inhibition of growth at 50 ppm (Rhizoctonia solani) [%] | inhibition of growth at 200 ppm (Rhizoctonia solani) [%] | inhibition of growth at 50 ppm (Fusarium moniliforme) [%] | inhibition of growth at 200 ppm (Fusarium moniliforme) [%] | inhibition of growth at 50 ppm (Rhizopus sp.) [%] | inhibition of growth at 200 ppm (Rhizopus sp.) [%] | inhibition of growth at 50 ppm (Botritis cinerea) [%] | inhibition of growth at 200 ppm (Botritis cinerea) [%] |
| --- | --- | --- | --- | --- | --- | --- | --- | --- | --- | --- | --- | --- | --- | --- | --- | --- |
| Clc1ccc([Si]2(Cn3cncn3)CCCCC2)c(Cl)c1 [1-(2,4-dichlorophenyl)-1-(1H-1,2,4-triazole-1-yl)methyl-1-silacyclohexane] | 65 | 87 | 98 | 100 | 100 | 100 | 100 | 100 | 20 | 50 | 100 | 100 | 50 | 72 | 97 | 100 |
| Clc1ccc([Si]2(Cn3cncn3)CCCC2)c(Cl)c1 [1-(2,4-dichlorophenyl)-1-(1H-1,2,4-triazole-1-yl)methyl-1-silacyclopentane] | 72 | 79 | 97 | 100 | 100 | 100 | 100 | 100 | 65 | 100 | 100 | 100 | 59 | 70 | 99 | 100 |
| CC(n1cncn1)[Si]1(c2ccc(Cl)cc2Cl)CCCC1 (stereo not drawn) [1-(2,4-dichlorophenyl)-1-[α-(1H-1,2,4-triazole-1-yl)ethyl)-1-silacyclopentane] | 83 | 96 | 95 | 100 | 100 | 100 | 100 | 100 | 69 | 87 | 100 | 100 | 68 | 94 | 92 | 100 |
| CC(n1cncn1)[Si]1(c2ccc(Cl)cc2Cl)CCCCC1 (stereo not drawn) [1-(2,4-dichlorophenyl)-1-[α-(1H-1,2,4-triazole-1-yl)ethyl]-1-silacyclohexane] | 64 | 100 | 100 | 100 | 100 | 100 | 100 | 100 | 100 | 100 | 100 | 100 | 54 | 60 | 100 | 100 |
| Fc1ccc([Si]2(Cn3cncn3)CCCCC2)c(F)c1 [1-(2,4-difluorophenyl)-1-(1H-1,2,4-triazole-1-yl)methyl-1-silacyclohexane] | 67 | 89 | 100 | 100 | 100 | 100 | 100 | 100 | 41 | 61 | 100 | 100 | 53 | 61 | 100 | 100 |
| Fc1ccc([Si]2(Cn3cncn3)CCCC2)c(F)c1 [1-(2,4-difluorophenyl)-1-(1H-1,2,4-triazole-1-yl)methyl-1-silacyclopentane] | 32 | 85 | 100 | 100 | 100 | 100 | 100 | 100 | 76 | 100 | 100 | 100 | 63 | 72 | 100 | 100 |
| CC(n1cncn1)[Si]1(c2ccc(F)cc2F)CCCCC1 (stereo not drawn) [1-(2,4-difluorophenyl)-1-[α-(1H-1,2,4-triazole-1-yl)ethyl]-1-silacyclohexane] | 82 | 100 | 100 | 100 | 100 | 100 | 100 | 100 | 96 | 100 | 100 | 100 | 53 | 79 | 100 | 100 |
| CC(n1cncn1)[Si]1(c2ccc(F)cc2F)CCCC1 (stereo not drawn) [1-(2,4-difluorophenyl)-1-[α-(1H-1,2,4-triazole-1-yl)ethyl]-1-silacyclopentane] | 45 | 94 | 100 | 100 | 100 | 100 | 100 | 100 | 79 | 100 | 100 | 100 | 78 | 87 | 100 | 100 |
| c1ccc(-c2ccc([Si]3(Cn4cncn4)CCCCC3)cc2)cc1 [1-(4-biphenyl)-1-(1H-1,2,4-triazole-1-yl)methyl-1-silacyclohexane] | 92 | 100 | 100 | 100 | 100 | 100 | 100 | 100 | 71 | 80 | 100 | 100 | 72 | 94 | 100 | 100 |
| c1ccc(-c2ccc([Si]3(Cn4cncn4)CCCC3)cc2)cc1 [1-(4-biphenyl)-1-(1H-1,2,4-triazole-1-yl)methyl-1-silacyclopentane] | 68 | 100 | 72 | 72 | 100 | 100 | 100 | 100 | 89 | 93 | 47 | 100 | 69 | 72 | 15 | 30 |
| CC(n1cncn1)[Si]1(c2ccc(-c3ccccc3)cc2)CCCCC1 (stereo not drawn) [1-(4-biphenyl)-1-[α-(1H-1,2,4-triazole-1-yl)ethyl]-1-silacyclohexane] | 92 | 100 | 100 | 100 | 100 | 100 | 100 | 100 | 100 | 100 | 100 | 100 | 79 | 89 | 100 | 100 |
| CC(n1cncn1)[Si]1(c2ccc(-c3ccccc3)cc2)CCCC1 (stereo not drawn) [1-(4-biphenyl)-1-[α-(1H-1,2,4-triazole-1-yl)ethyl]-1-silacyclopentane] | 80 | 100 | 100 | 100 | 100 | 100 | 100 | 100 | 100 | 100 | 97 | 100 | 86 | 90 | 100 | 100 |
